Like-named read-outs stand apart in the source and are kept apart here.
How the values were obtained:
[1] = test system: S. neurona infections or EPM; test: Trial in horses with presumptive diagnosis of EPM; assay type: in vivo, horse
Experimental: A trial was initiated in which veterinarians conducted neurological examinations and determined a presumptive diagnosis of EPM. […] The phenotype of S. neurona eliciting antibody production was determined for each animal. […] A neurological exam was conducted at the end of the treatment period and two to four weeks following treatment. Two to four weeks after treatment antibody levels were again assessed for serum antibody levels to S. neurona by phenotype. […] Veterinarians involved in the study elected to start decoquinate therapy at 0.05 mG/kG if the animals had received anti-protozoal therapy in the past and the case was considered a relapse of EPM.

[2] = Safety at the treatment dose in 150 horses; assay type: in vivo, horse; conditions: decoquinate 0.5 mG/kG and levamisole 1 mG/kG alone and in combination
[3] = test system: Sarcocystis neurona merozoites (SN6 strain); conditions: 0.1 microgram/ml decoquinate for 5 or 15 minutes, washed off, read at 6 weeks; cited from earlier work
[4] = test system: Sarcocystis neurona merozoites (SN3 strain); conditions: 0.1 microgram/ml decoquinate for 10 or 20 minutes, washed off, cultures maintained 16 days, controls 25% CPE; cited from earlier work
[5] = test system: Sarcocystis neurona merozoites (SN2 strain); conditions: 0.1 microgram/ml decoquinate for 10 or 20 minutes, washed off, cultures maintained 16 days, controls 40% CPE; cited from earlier work
[6] = test system: Sarcocystis neurona merozoites (SN3 strain); conditions: cited from earlier work
[7] = test system: EPM; conditions: cited from earlier work; for cure rate / relapse rate: EPM treatment in horses; for efficacy in horses to improve one grade of disease: EPM treatment
[8] = cited from earlier work
[9] = cited from earlier work; remark: listed apart in the source
[10] = in vivo; cited from earlier work
[11] = test system: S. neurona; conditions: cell cultures infected with S. neurona; cited from earlier work
[12] = horses, 5 mg/kg daily for 10 days

CCCCCCCCCCOc1cc2c(O)c(C(=O)OCC)cnc2cc1OCC [decoquinate, 6-declyoxy-7-ethoxy-4-hydroxy-3-quinoline-carboxylic acid ethyl ester]
time of therapy until noted improvement ([1]; decoquinate alone 0.05 mG/kG versus decoquinate/levamisole 0.5 mG/kG and 1.0 mg/kG): > 5 days | treatment outcome in mildly afflicted horses ([1]; prevention dose 0.05 mG/kG decoquinate alone, 90 days, 7 horses): success obtained in all the horses | success in historically relapsing horses ([1]; relapse cases after Marquis (17) or pyrimethamine/sulfadiazine (2), decoquinate therapy started at 0.05 mG/kG): 100% | adverse reactions [2]: no adverse reactions | parasites or parasite induced lesions in treated infected flasks [3]: No parasites or parasite induced lesions were seen | parasites or parasite induced lesions in treated infected flasks [4]: No parasites or parasite induced lesions were seen | cytopathic effect (CPE) [5]: 5% | reduction in merozoite production ([6]; 0.0001 microgram/ml continuously for 10 days): 40% | reduction in merozoite production ([6]; 0.001 microgram/ml continuously for 10 days): 87% | reduction in merozoite production ([6]; 0.01 microgram/ml continuously for 10 days): 98%

Cc1cc(-n2c(=O)[nH]c(=O)n(C)c2=O)ccc1Oc1ccc(SC(F)(F)F)cc1 [toltrazuril]
cure rate [7]: less than 25% | relapse rate [7]: 60% | efficacy in horses to improve one grade of disease [7]: 60% | mean CSF concentration [8, 12]: 160 µg/mL | plasma levels [8, 12]: 20 µg/mL | oral absorption ([8]; in vivo, po): good oral absorption | elimination time ([8]; in vivo): 48 to 72 h | lipid solubility [9]: good lipid solubility | complications, serum chemistry values, complete blood counts [10]: has not been shown to result in any complications

c1ccc([C@H]2CN3CCSC3=N2)cc1 [levamisole]
adverse reactions [2]: no adverse reactions

N#CC(c1ccc(Cl)cc1)c1c(Cl)cc(-n2ncc(=O)[nH]c2=O)cc1Cl (stereo not shown) [diclazuril]
cure rate [7]: less than 25% | relapse rate [7]: 60% | efficacy in horses to improve one grade of disease [7]: 60% | time after feeding at which drug was found in serum ([8]; fed to horses): one | anti-S. neurona activity in cell cultures [11]: has anti-S. neurona activity

Reference: patent US20140045885A1, “Decoquinate, 4-hydroxyquinolones and napthoquinones combined with levamisole, Imidazothiazole, for the prevention and treatment of sarcocystosis and equine protozoal myeloencephalitis caused by Sarcocystis and Neospora and other apicomplexan protozoans” (priority 2012, published 2014)
